Series [1] has as its system clinical isolates of P. aeruginosa. As to conditions: clinical isolates, n=20. On the procedure: (§1) Broad-spectrum antimicrobial activity was evaluated using the broth microdilution assays against two different pathogens from four different species of bacteria (P. aeruginosa, S. aureus, K. pneumoniae, and E. coli) to determine if the cyclotides retained its potent activity. Broth microdilution assays were utilized to determine the minimum inhibitory concentrations (MICs) of our cyclotides according to the CLSI (formerly NCCLS) guidelines modifications as described below (40). The assay utilized cation-adjusted Mueller-Hinton broth (CAMHB) (Becton, Dickinson and Company, Franklin Lakes, NJ) which was prepared according to the manufacturer's instructions. Cyclotide solutions were prepared as 10× solutions in 0.01% acetic acid. Cyclotide were serially diluted two-fold at concentrations ranging from 25-0.05 μM that contained CAMHB and 0.04% bovine serum albumin (BSA) in polypropylene microtiter plates (Corning, Corning, NY). All bacteria were incubated overnight at 37° C. at 200 rpm in CAMHB and bacterial inoculum was adjusted with additional CAMHB to 0.5 McFarland standard through spectrophotometry at 600 nm. […] Study strains included a total of 20 P. aeruginosa and 20 methicillin resistant S. aureus strains from patients with cystic fibrosis at the Keck Medical Center of the University of Southern California. […] Colistin sulphate (Sigma-Aldrich, St Louis, MO) was used as a reference antibiotic for P. aeruginosa and E. coli, while vancomycin hydrochloride and meropenem trihydrate were used as reference antibiotics for S. aureus and K. pneumoniae.

Series [2] can be described thus: Maximum tolerated dose (MTD) toxicology study. The text has this:
(§2) Colistin was used as a control antibiotic.[28] […] For this purpose, Applicant employed a P. aeruginosa bacterial peritonitis model.[29] This animal model is a well-established acute infection model and is commonly utilized as a common preclinical screening method for new antibiotics.[30] Peritonitis in Balb/c mice (n=10) was established by intraperitoneal injection of 1.5×10^7 colony forming units (CFU) per mouse of P. aeruginosa (Schroeter) Migula (ATCC 27853).
Maximum tolerated dose (MTD) toxicology Studies. The MTD was determined using two different endpoints: weight loss and clinical scoring. Clinical scores were evaluated through activity, appearance and body condition, similar to previously published literature (42). […] Any dose escalation that leads to moderate toxicity (clinical score of >2) was ceased and the dose prior served as the MTD. Mice were monitored every hour for 4 h after injection on the first day. After 24 h, mice were monitored twice daily for another two days until weight and clinical scores were returned to normal. Mice that met the criteria for moribund included a >20% weight loss and clinical score of >3 and were euthanized.

Series [3] deals with P. aeruginosa (Schroeter) Migula (ATCC 27853). Briefly: P. aeruginosa-induced peritonitis murine model. It is filed as in vivo, Balb/c mice. The arrangement: reference not given here. The settings on record: single i.p. dose 15 mg/kg, 7 days.
Source text: as §2
P. aeruginosa-induced peritonitis murine model. Eight to 10-week-old Balb/c mice (Jackson Laboratory, Bar Harbor, ME) were housed five in a cage with standard chow and water ad libitum. To establish the model, 1.5×10^7 CFU of log-phase P. aeruginosa ATCC 27853 was injected intraperitoneally. […] Mice were monitored for 7 days and/or euthanized if any mice presented signs of moribundity.

A short description of series [4]: in vitro. The method, then: This was accomplished by incubating the corresponding peptides in human serum at 37° C. The quantitative analysis of undigested polypeptides was performed using liquid chromatography coupled with tandem mass spectrometry (LC-MS/MS). MCoTI-cyclotides present a very rigid structure,[24] which makes them extremely stable to proteolytic degradation.
Human serum stability. […]. Peptides were dissolved in water at 10 mg/mL concentration. 150 μg of peptides (15 μL) were mixed with 500 μL of human serum and incubated at 37° C. Samples (30 μL) were taken at various time intervals (0-120 h) and serum proteins were precipitated using 180 μL of acetonitrile containing 0.1% TFA. After centrifugation the pellet was dissolved in 8 M GdmCl and the supernatant was lyophilized and re-dissolved in 5% acetonitrile in water containing 0.1% formic acid. Both the supernatant and solubilized pellet fractions were analyzed by HPLC and LC-MS/MS. Each experiment was done in triplicate.

Series [5] relates to E. coli. The settings on record: CAMHB. The method, then:
as §1

The test system of series [6] is K. pneumoniae. As to conditions: CAMHB. The method, then:
as §1

For series [7], the system named is P. aeruginosa. As to conditions: CAMHB; for MIC against P. aeruginosa: summary over the tested strains. The method, then: as §1
Series [8] deals with S. aureus. The settings on record: CAMHB. The method, then: as §1
Series [9] concerns clinical isolates of methicillin-resistant S. aureus (MRSA). The settings on record: MRSA clinical isolates, n=20. On the procedure: as §1
Setting [10] is: S. aureus BAA977, clindamycin resistant strain.
The mark [11] stands for this setting: S. aureus HH35, methicillin resistant strain.
[12] abbreviates: S. aureus USA300, methicillin resistant strain.
The mark [13] stands for this setting: summary over the tested strains.

Values after ≈ are worked out from the molar mass of the structure shown. Like-named read-outs stand apart in the source and are kept apart here. Positions of bridges follow the written chain, without caps; N, C: chain ends. Bounds are passed on as bounds.

On to Colistin, for which, in [1], the “P. aeruginosa MIC50” value was no more than 0.2 µM, the “P. aeruginosa MIC90” value was found to be 0.4 µM and the “P. aeruginosa MICrange” value is no more than 0.2 to 0.4 µM. Also, the “maximum tolerated dose (well tolerated intraperitoneal dose)” value in series [2] (Balb/c mice, single i.p. dose, endpoints weight loss and clinical score) came out at 15 mg/kg. For the same compound, the “hazard ratio [HR] (survival)” value in [3] (12.3 μmol/kg, as printed in legend of FIG. 4) was 24.8. Also, the “hazard ratio [HR] (survival)” value in [3] turned out to be 0.040.
Usually half-life stands for how long it takes for the measured level to halve. As a reminder, the MTD is the largest dose that counted as tolerated. Take `CC(C)C[C@H](NC(=O)[C@H](CCCNC(=N)N)NC(=O)CNC(=O)CNC(=O)[C@@H](N)CCCNC(=N)N)C(=O)N[C@H]1CSSC[C@@H](C(=O)N[C@H](C(=O)NCC(=O)N[C@@H](CCCNC(=N)N)C(N)=O)C(C)C)NC(=O)[C@H](C(C)C)NC(=O)[C@@H]2CSSC[C@H](NC(=O)[C@H](Cc3ccc(O)cc3)NC1=O)C(=O)N[C@@H](CCCNC(=N)N)C(=O)N[C@@H](CCCNC(=N)N)C(=O)N[C@@H](CCCNC(=N)N)C(=O)N[C@@H](Cc1ccccc1)C(=O)N2` [PG-1, reference compound]: the “degradation in human serum within the first 24 h (in words)” value in [4] (37° C.) was “significant degradation”. Besides, the metabolised at 24 h, 0.29 mg/mL in series [4] (human, human serum) was roughly 55%. The same compound showed a half-life at 0.29 mg/mL in series [4] (human, human serum, t1/2 in human serum, 37° C., LC-MS/MS) of 30 ± 3 h. The compound also came in with an MTD at 3 days in series [2] (Balb/c, mouse, in vivo, ip) of 5 mg/kg.
The MIC is the least concentration at which growth counts as inhibited. Take `CC[C@H](C)[C@@H]1NC(=O)[C@@H]2CSSC[C@@H]3NC(=O)[C@H](C(C)C)NC(=O)CNC(=O)CNC(=O)CNC(=O)[C@H](CCCNC(=N)N)NC(=O)[C@H](CCCNC(=N)N)NC(=O)CNC(=O)[C@H](C(C)C)NC(=O)[C@@H]4CSSC[C@H](NC(=O)[C@H](CC(C)C)NC(=O)[C@H](CCCNC(=N)N)NC(=O)CNC(=O)CNC(=O)CNC(=O)[C@H](CO)NC(=O)CNC(=O)[C@H](CO)NC(=O)CNC(=O)[C@@H]5CSSC[C@H](NC(=O)[C@H](CC(=O)O)NC(=O)[C@H](CO)NC(=O)[C@H](CC(=O)O)NC(=O)[C@H](CCCNC(=N)N)NC(=O)[C@H](CCCNC(=N)N)NC(=O)[C@H](CSSC[C@H](NC1=O)C(=O)N[C@@H](CCCNC(=N)N)C(=O)NCC(=O)N[C@@H](CC(N)=O)C(=O)NCC(=O)N[C@@H](Cc1ccc(O)cc1)C(=O)N5)NC(=O)[C@H](CCCNC(=N)N)NC(=O)[C@H](CCC(N)=O)NC(=O)[C@H](CC(C)C)NC(=O)[C@H]([C@@H](C)CC)NC(=O)[C@H](CCCCN)NC(=O)[C@@H]1CCCN1C3=O)C(=O)N1CCC[C@H]1C(=O)NCC(=O)N[C@@H](C)C(=O)N2)C(=O)N[C@@H](Cc1ccc(O)cc1)C(=O)N[C@H]1CSSC[C@H](NC(=O)[C@H](Cc2ccccc2)NC(=O)[C@H](CCCNC(=N)N)NC(=O)[C@H](CCCNC(=N)N)NC(=O)[C@H](CCCNC(=N)N)NC1=O)C(=O)N[C@@H](C(C)C)C(=O)N4` [MCo-PG4]: the MIC in series [5] (E. coli DS377) turned out to be 1.6 µM (≈ 8.99 µg/mL); in [5] (E. coli K12) it was 1.6 µM (≈ 8.99 µg/mL); in [6] (K. pneumoniae BAA1705), 12.5 µM (≈ 70.2 µg/mL); in series [6] (K. pneumoniae K6), 12.5 µM (≈ 70.2 µg/mL); in series [7] (P. aeruginosa PA27853) it was 1.6 µM (≈ 8.99 µg/mL); in series [8] (S. aureus 25973), 12.5 µM (≈ 70.2 µg/mL). For the same compound, the MIC in [8] (setting [10]), in series [8] (setting [11]) and in series [8] (setting [12]) was 12.5 µM (≈ 70.2 µg/mL) each time. Moreover, the “MIC against P. aeruginosa” value in [7] amounted to 1.6 µM (≈ 8.99 µg/mL).
Consider “cyclo[GGVCPKILQRCRRDSDCPGACICRGNGYCGSGSGRLCYCRRRFCVCVGR] (cyclo(GGVCPKILQRCRRDSDCPGACICRGNGYCGSGSGRLCYCRRRFCVCVGR); not fully specified; printed as cyclo[GGVCPKILQRCRRDSDCPGACICRGNGYCGSGSGRLCYCRRRFCVCVGR]; cysteine pairing not given here) [MCo-PG5]”, for which the MIC was 1.6 µM in [5] (E. coli DS377); 1.6 µM in series [5] (E. coli K12); 6.2 µM in series [6] (K. pneumoniae BAA1705); 6.2 µM in series [6] (K. pneumoniae K6); 3.1 µM in series [7] (P. aeruginosa PA27853); 3.1 µM in series [7] (P. aeruginosa PAO1). The MIC in series [8] (S. aureus 25973), in series [8] (setting [10]), in [8] (setting [11]) and in series [8] (setting [12]) was 12.5 µM throughout.
For the compound “cyclo(GGVCPKILQRCRRDSDCPGACICRGNGYCGSGSGGCLCYCRRRFCVCVCRR) (disulfide 4-21, 11-23, 17-29, 36-49, 38-47, 40-45 (inferred); ring closure inferred) [MCo-PG3]”, the MIC in series [5] (E. coli K12) is greater than 25 µM; in series [6] (K. pneumoniae K6), greater than 25 µM; in [7] (P. aeruginosa PA27853) it was 25 µM; in series [8] (S. aureus 25973), greater than 25 µM; in [8] (setting [10]), greater than 25 µM; in series [8] (setting [11]), greater than 25 µM. Also, the “MIC against E. coli” value in [5] (setting [13]) is given as “above 25 μM”. Besides, the “MIC against K. pneumoniae” value in [6] (setting [13]) is “above 25 μM”. Besides, in series [7], the “MIC against P. aeruginosa” value stood at 25 µM. Moreover, in series [8] (setting [13]), the “MIC against S. aureus” value was “above 25 μM”.
Regarding `CN[C@H](CC(C)C)C(=O)N[C@H]1C(=O)N[C@@H](CC(N)=O)C(=O)N[C@H]2C(=O)N[C@H]3C(=O)N[C@H](C(=O)N[C@H](C(=O)O)c4cc(O)cc(O)c4-c4cc3ccc4O)[C@H](O)c3ccc(c(Cl)c3)Oc3cc2cc(c3O[C@@H]2O[C@H](CO)[C@@H](O)[C@H](O)[C@H]2O[C@H]2C[C@](C)(N)[C@H](O)[C@H](C)O2)Oc2ccc(cc2Cl)[C@H]1O` [Vancomycin, reference compound], in series [9], the “S. aureus MICrange” value is 0.5 to 1.4 µM.

The values are drawn from patent US20240092846A1, “ENGINEERED CYCLOTIDES WITH POTENT BROAD ANTIMICROBIAL ACTIVITY” (priority 2022, published 2024).
